In ChEMBL document CHEMBL1121904, “Potential antitumor agents. 35. Quantitative relationships between antitumor (L1210) potency and DNA binding for 4'-(9-acridinylamino)methanesulfon-m-anisidide analogues” (J Med Chem, 1981):

Assays:
[1] = tested on: Calf thymus DNA; conditions: Bos taurus
Description: Association constant measured for binding towards poly[d(A-T)] of DNA in calf thymus

[2] = physchem
Description: Ionisation constant (pKa)

Structure (SMILES): COc1cc(NS(C)(=O)=O)ccc1Nc1c2ccccc2nc2cc(F)ccc12
- Log K [1]: 5.54
- pKa [2]: 7.05

Structure (SMILES): COc1cc(NS(C)(=O)=O)ccc1Nc1c2ccccc2nc2c(C(=O)NCC(C)O)cccc12 (stereo not given)
- Log K [1]: 5.34
- pKa [2]: 6.2

Structure (SMILES): COc1cc(NS(C)(=O)=O)ccc1Nc1c2ccccc2nc2cc(C)ccc12
- Log K [1]: 5.95
- pKa [2]: 7.7

Structure (SMILES): COc1cc(NS(C)(=O)=O)ccc1Nc1c2ccccc2nc2c(-c3ccccc3)cccc12
- Log K [1]: 5.6
- pKa [2]: 7.02

Structure (SMILES): COc1cc(NS(C)(=O)=O)ccc1Nc1c2ccccc2nc2c(OCCCC(N)=O)cccc12
- Log K [1]: 5.74
- pKa [2]: 7.36

Structure (SMILES): COc1cc(NS(C)(=O)=O)ccc1Nc1c2ccccc2nc2c(C(=O)N3CCOCC3)cccc12
- Log K [1]: 4.96
- pKa [2]: 6.03

Structure (SMILES): COc1cc(NS(C)(=O)=O)ccc1Nc1c2ccccc2nc2ccc(C)cc12
- Log K [1]: 5.35
- pKa [2]: 7.45

Structure (SMILES): COc1cc(NS(C)(=O)=O)ccc1Nc1c2ccccc2nc2c(C)cccc12
- Log K [1]: 6.03
- pKa [2]: 7.39

Structure (SMILES): COc1cc(NS(C)(=O)=O)ccc1Nc1c2ccccc2nc2c(C(=O)NCC(O)CO)cccc12 (stereo not given)
- Log K [1]: 5.26

Structure (SMILES): COc1ccc2c(Nc3ccc(NS(C)(=O)=O)cc3OC)c3ccccc3nc2c1
- Log K [1]: 5.83
- pKa [2]: 7.81

Structure (SMILES): CCCCNC(=O)c1cccc2c(Nc3ccc(NS(C)(=O)=O)cc3OC)c3ccccc3nc12
- Log K [1]: 5.4

Structure (SMILES): COc1cc(NS(C)(=O)=O)ccc1Nc1c2ccccc2nc2ccc(F)cc12
- Log K [1]: 5.28
- pKa [2]: 6.71

Structure (SMILES): COc1cc(NS(C)(=O)=O)ccc1Nc1c2ccccc2nc2c(C(=O)NCC(N)=O)cccc12
- Log K [1]: 5.39

Structure (SMILES): C=NC(=O)CCc1cccc2c(Nc3ccc(NS(C)(=O)=O)cc3OC)c3ccccc3nc12
- Log K [1]: 5.65
- pKa [2]: 7.15

Structure (SMILES): COc1cc(NS(C)(=O)=O)ccc1Nc1c2ccccc2nc2ccc(N)cc12
- Log K [1]: 5.95
- pKa [2]: 7.37

Structure (SMILES): COc1cc(NS(C)(=O)=O)ccc1Nc1c2ccccc2nc2ccc(C(C)C)cc12
- Log K [1]: 5.39
- pKa [2]: 7.4

Structure (SMILES): COc1cc(NS(C)(=O)=O)ccc1Nc1c2ccccc2nc2cc(C(N)=O)ccc12
- Log K [1]: 5.66
- pKa [2]: 6.66

Structure (SMILES): COc1cc(NS(C)(=O)=O)ccc1Nc1c2ccccc2nc2cc(Br)ccc12
- Log K [1]: 6.29
- pKa [2]: 6.84

Structure (SMILES): COc1cc(NS(C)(=O)=O)ccc1Nc1c2ccccc2nc2c(F)cccc12
- Log K [1]: 5.65
- pKa [2]: 6.33

Structure (SMILES): COc1cc(NS(C)(=O)=O)ccc1Nc1c2ccccc2nc2c(OCC(O)CO)cccc12 (stereo not given)
- Log K [1]: 5.9
- pKa [2]: 7.3

Structure (SMILES): COc1cc(NS(C)(=O)=O)ccc1Nc1c2ccccc2nc2c(C(=O)N(C)C)cccc12
- Log K [1]: 5.04

Structure (SMILES): CNC(=O)c1cccc2c(Nc3ccc(NS(C)(=O)=O)cc3OC)c3ccccc3nc12
- Log K [1]: 5.54

Structure (SMILES): COc1cc(NS(C)(=O)=O)ccc1Nc1c2ccccc2nc2cc(I)ccc12
- Log K [1]: 6.35
- pKa [2]: 6.77

Structure (SMILES): CCOc1cccc2c(Nc3ccc(NS(C)(=O)=O)cc3OC)c3ccccc3nc12
- Log K [1]: 5.77
- pKa [2]: 7.37

Structure (SMILES): COc1cc(NS(C)(=O)=O)ccc1Nc1c2ccccc2nc2c(OC)cccc12
- Log K [1]: 5.94
- pKa [2]: 7.39

Structure (SMILES): COc1cc(NS(C)(=O)=O)ccc1Nc1c2ccccc2nc2cc(N)ccc12
- Log K [1]: 6.21
- pKa [2]: 9.92

Structure (SMILES): COc1cc(NS(C)(=O)=O)ccc1Nc1c2ccccc2nc2c(C(=O)NCCO)cccc12
- Log K [1]: 5.42
- pKa [2]: 6.27

Structure (SMILES): COc1cc(NS(C)(=O)=O)ccc1Nc1c2ccccc2nc2c(C#N)cccc12
- Log K [1]: 5.01
- pKa [2]: 4.87

Structure (SMILES): COc1cc(NS(C)(=O)=O)ccc1Nc1c2ccccc2nc2cc(Cl)ccc12
- Log K [1]: 6.06
- pKa [2]: 6.84

Structure (SMILES): CNC(=O)COc1cccc2c(Nc3ccc(NS(C)(=O)=O)cc3OC)c3ccccc3nc12
- Log K [1]: 5.8
- pKa [2]: 7.35

Structure (SMILES): COC(=O)Nc1ccc2c(Nc3ccc(NS(C)(=O)=O)cc3OC)c3ccccc3nc2c1
- Log K [1]: 6.37
- pKa [2]: 7.77

Structure (SMILES): COc1cc(NS(C)(=O)=O)ccc1Nc1c2ccccc2nc2cc(C(C)C)ccc12
- Log K [1]: 5.46
- pKa [2]: 7.66

Structure (SMILES): COc1cc(NS(C)(=O)=O)ccc1Nc1c2ccccc2nc2cc(C(F)(F)F)ccc12
- Log K [1]: 5.24
- pKa [2]: 6.24

Structure (SMILES): COc1cc(NS(C)(=O)=O)ccc1Nc1c2ccccc2nc2c([N+](=O)[O-])cccc12
- Log K [1]: 5.2
- pKa [2]: 5.05

Structure (SMILES): COc1cc(NS(C)(=O)=O)ccc1Nc1c2ccccc2nc2c(Cl)cccc12
- Log K [1]: 5.76
- pKa [2]: 6.11

Structure (SMILES): COc1cc(NS(C)(=O)=O)ccc1Nc1c2ccccc2nc2cnccc12
- Log K [1]: 5.09
- pKa [2]: 5.53

Structure (SMILES): COc1cc(NS(C)(=O)=O)ccc1Nc1c2ccccc2nc2cc(NC(C)=O)ccc12
- Log K [1]: 6.24

Structure (SMILES): COc1cc(NS(C)(=O)=O)ccc1Nc1c2ccccc2nc2ccc(I)cc12
- Log K [1]: 5.7
- pKa [2]: 6.6

Structure (SMILES): COc1cc(NS(C)(=O)=O)ccc1Nc1c2ccccc2nc2ncccc12
- Log K [1]: 5.27

Structure (SMILES): COc1cc(NS(C)(=O)=O)ccc1Nc1c2ccccc2nc2c(OCCO)cccc12
- Log K [1]: 5.74
- pKa [2]: 7.36

Structure (SMILES): COc1cc(NS(C)(=O)=O)ccc1Nc1c2ccccc2nc2c(Br)cccc12
- Log K [1]: 5.57
- pKa [2]: 6.09

Structure (SMILES): COc1cc(NS(C)(=O)=O)ccc1Nc1c2ccccc2nc2cc(C#N)ccc12
- Log K [1]: 5.65
- pKa [2]: 5.94

Structure (SMILES): COc1cc(NS(C)(=O)=O)ccc1Nc1c2ccccc2nc2c(C(=O)NCCCO)cccc12
- Log K [1]: 5.4
- pKa [2]: 6.3

Structure (SMILES): CCc1ccc2c(Nc3ccc(NS(C)(=O)=O)cc3OC)c3ccccc3nc2c1
- Log K [1]: 5.66
- pKa [2]: 7.65

Structure (SMILES): COc1cc(NS(C)(=O)=O)ccc1Nc1c2ccccc2nc2c(C(N)=O)cccc12
- Log K [1]: 5.47

Structure (SMILES): CNc1ccc2c(Nc3ccc(NS(C)(=O)=O)cc3OC)c3ccccc3nc2c1
- Log K [1]: 6.17
- pKa [2]: 10.1

Structure (SMILES): COc1cc(NS(C)(=O)=O)ccc1Nc1c2ccccc2nc2cc([N+](=O)[O-])ccc12
- Log K [1]: 5.65
